*1 amine or outer side, *2 acyl side, *3 side chain or, on linkers, in order; H or OH if unused. Where a SMILES comes first, the peptide text is derived from it. Bridges are numbered along the chain shown (N, C = ends). [ ]: non-standard residue; d: D form. 2Nal = N[C@@H](Cc1ccc2ccccc2c1)C(=O)O; AEF = NCCOc1ccc(C[C@H](N)C(=O)O)cc1; X1 = O=C(Cc1ccc(CN[*:1])cc1)[*:2]; 3Pal = N[C@@H](Cc1cccnc1)C(=O)O; αMeL = CC(C)C[C@](C)(N)C(=O)O; Dab = NCC[C@H](N)C(=O)O
How the values were obtained:
[1] = test system: porcine pepsin (P7125, Sigma Aldrich); experiment: SGF: sodium chloride, HCl, pH 1.2, with porcine pepsin (3.2 g/L); details: 37 °C, up to 4 hours
[2] = Peptide stability in simulated intestinal fluid (SIF); format: in vitro ADME; details: pig, simulated intestinal fluid (SIF) with porcine pancreatin; 4 h, 37 °C, pH 6.8, porcine pancreatin 10 g/L, 10 µM; read-out: SIF (% remaining 4 h)
Procedure, shortened: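 Peptides were incubated at 37 °C with gentle shaking in pH 6.8 potassium phosphate SIF containing porcine pancreatin (10 g/L). Supernatants were analysed by LC-HRMS. Percent remaining at each timepoint, including 4 h, was calculated relative to time zero from absolute peak areas.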

human IL-23R = biological target: T1, human IL-23R (Homo sapiens, UniProt Q5VWK5); experiment: biochemical
T1 sequence (Q5VWK5 22-629): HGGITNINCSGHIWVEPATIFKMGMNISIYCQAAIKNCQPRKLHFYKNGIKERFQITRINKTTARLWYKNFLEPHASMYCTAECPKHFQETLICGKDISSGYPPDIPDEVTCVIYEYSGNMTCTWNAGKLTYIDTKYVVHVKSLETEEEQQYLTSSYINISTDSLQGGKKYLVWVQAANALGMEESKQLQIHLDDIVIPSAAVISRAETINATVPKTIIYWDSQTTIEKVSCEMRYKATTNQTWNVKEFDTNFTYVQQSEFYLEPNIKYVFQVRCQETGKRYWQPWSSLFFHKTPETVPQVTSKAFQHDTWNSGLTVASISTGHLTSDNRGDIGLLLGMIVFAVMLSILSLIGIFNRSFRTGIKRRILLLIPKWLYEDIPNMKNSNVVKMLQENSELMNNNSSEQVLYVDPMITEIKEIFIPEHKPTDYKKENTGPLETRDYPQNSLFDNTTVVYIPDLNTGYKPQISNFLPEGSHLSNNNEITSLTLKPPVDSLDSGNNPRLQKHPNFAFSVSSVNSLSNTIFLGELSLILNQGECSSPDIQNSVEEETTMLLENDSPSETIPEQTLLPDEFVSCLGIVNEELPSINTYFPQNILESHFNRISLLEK
Procedure, shortened: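 BRET displacement of a TAMRA-labelled reference compound from N-terminal Nanoluc-IL-23R fusion protein in membranes from stably transfected HEK293 cells. Incubation 2 h at room temperature, then Nanoluc substrate was added and the TAMRA/Nanoluc ratio read. IC50 and maximal displacement came from 4-parameter logistic fits.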

[3] = Peptide stability in simulated gastric fluid (SGF); format: in vitro ADME; details: pig, simulated gastric fluid (SGF) with porcine pepsin, 37 °C, pH 1.2, porcine pepsin 3.2 g/L
Description: SGF was prepared by dissolving sodium chloride (0.2 g) in 50 mL of water. A volume of 0.7 mL of 10 M HCl was added to adjust the pH of the solution to 1.2 and the volume made up to 100 mL with water. […] SIF was prepared by dissolving monobasic potassium phosphate (0.68 g) in 50 mL of water and adjusting the pH to 6.8 with 1 M NaOH. The volume was subsequently made up to 100 mL with water. 200 mg porcine pancreatin (P1625, Sigma Aldrich) was gently dissolved into 20 mL preheated (37 °C) solution (10 g/L) immediately prior to the incubation.
The incubation was performed at 37 °C with gentle shaking. […] After the last timepoint, the sampling plate was mixed for 10 min on a shaking table and centrifuged 10 min at 2200 g. 70 µL resulting supernatant was diluted with 150 µL water, mixed and centrifugated before analysis by liquid chromatography high resolution mass spectrometry. […] Percent remaining at each timepoint was calculated relative to timepoint zero based on absolute peak areas.
Compounds with a SGF stability (after 4 h) above 70% are considered highly SGF stable. […] Table 3-4: SGF data

## [4-Aminomethyl-phenylacetyl](1c)*SE(2c)WQ[Dab](2c)[Y(2-aminoethoxy)][2-Nal][2-Me-Leu]E(1c)[hSer][3-(3-Pyridyl)-Ala]
[1]
  not cleaved: 103% remaining after 4 h

## [4-Aminomethyl-phenylacetyl](1c)*SE(2c)WQ[Dab](2c)[Y(2-aminoethoxy)][2-Nal][2-Me-Leu]E(1c)Q[3-(3-Pyridyl)-Ala]
[1]
  not cleaved: 93% remaining after 4 h

## [4-Aminomethyl-phenylacetyl](1c)*SE(2c)W[Q(pyrrolidin)][Dab](2c)[Y(2-aminoethoxy)][2-Nal][2-Me-Leu]E(1c)[Dab][3-(3-Pyridyl)-Ala]
[1]
  not cleaved: 96% remaining after 4 h

## H-GC(1a)TC(2a)WEC(2a)WWLC(1a)S-[NH2]
[1]
  not cleaved: 94% remaining after 4 h

## [4-Aminomethyl-phenylacetyl](1c)*SE(2c)WQ[Dab](2c)[Y(2-aminoethoxy)][2-Nal][2-Me-Leu]E(1c)[Dab][{d}3-(3-Pyridyl)-Ala]-[NH2]
[1]
  not cleaved: 105% remaining after 4 h

## [4-Aminomethyl-phenylacetyl](1c)*SE(2c)WQ[Dab](2c)[Y(2-aminoethoxy)][2-Nal][2-Me-Leu]E(1c)[Dab][N-Me-3-(3-Pyridyl)-Ala]-[NH2]
[1]
  not cleaved: 103% remaining after 4 h

## [4-Aminomethyl-phenylacetyl](1c)*SE(2c)WQ[Dab](2c)[Y(2-aminoethoxy)][2-Nal][2-Me-Leu]E(1c)[Dab]-[NH-(4-(pyridin-3-yl)butanyl)]
[1]
  not cleaved: 108% remaining after 4 h

## [4-Aminomethyl-phenylacetyl](1c)*SE(2c)WQ[Dab](2c)[Y(2-aminoethoxy)][2-Nal][2-Me-Leu]E(1c)[Ser(OMe)][3-(3-Pyridyl)-Ala]
[1]
  not cleaved: 102% remaining after 4 h

## CNC(=O)[C@H](Cc1cccnc1)NC(=O)[C@H](CCC(N)=O)NC(=O)[C@@H]1CCC(=O)NCc2ccc(cc2)CC(=O)N[C@@H](CO)C(=O)N[C@H]2CCC(=O)NCC[C@H](NC(=O)[C@H](CCC(N)=O)NC(=O)[C@H](Cc3c[nH]c4ccccc34)NC2=O)C(=O)N[C@@H](Cc2ccc(OCCN)cc2)C(=O)N[C@@H](Cc2ccc3ccccc3c2)C(=O)N[C@@](C)(CC(C)C)C(=O)N1 [Compound 33, [4-Aminomethyl-phenylacetyl](1c)*SE(2c)WQ[Dab](2c)[Y(2-aminoethoxy)][2-Nal][2-Me-Leu]E(1c)Q[3-(3-Pyridyl)-Ala]-[NHMe]] ([X1]SEWQ[Dab][AEF][2Nal][αMeL]EQ[3Pal]-NHMe; lactam 3-6, N-10)
[2]
  remaining at 4 h, 10 µM: 69%
Human IL-23R
  IC50: 14 pM
Human IL-23R; read-out: % displacement (hIL-23R binding)
  Emax: 92%
[3]; 4 h
  remaining at 4 h, 10 µM: 93%

## CCCC[C@H](NC(=O)[C@@H]1CCC(=O)NCc2ccc(cc2)CC(=O)N[C@@H](CO)C(=O)N[C@H]2CCC(=O)NCC[C@H](NC(=O)[C@H](CCC(N)=O)NC(=O)[C@H](Cc3c[nH]c4ccccc34)NC2=O)C(=O)N[C@@H](Cc2ccc(OCCN)cc2)C(=O)N[C@@H](Cc2ccc3ccccc3c2)C(=O)N[C@@](C)(CC(C)C)C(=O)N1)C(=O)N[C@@H](Cc1cccnc1)C(=O)NC [Compound 32, [4-Aminomethyl-phenylacetyl](1c)*SE(2c)WQ[Dab](2c)[Y(2-aminoethoxy)][2-Nal][2-Me-Leu]E(1c)[Nle][3-(3-Pyridyl)-Ala]-[NHMe]]
[2]
  remaining at 4 h, 10 µM: 65%
Human IL-23R
  % displacement (hIL-23R binding): 98%
  IC50: 27 pM
[3]
  remaining at 1 h, 10 µM: 96%

## CNC(=O)[C@H](Cc1cccnc1)NC(=O)[C@H](CO)NC(=O)[C@@H]1CCC(=O)NCc2ccc(cc2)CC(=O)N[C@@H](C)C(=O)N[C@H]2CCC(=O)NCC[C@H](NC(=O)[C@H](CCC(N)=O)NC(=O)[C@H](Cc3c[nH]c4ccccc34)NC2=O)C(=O)N[C@@H](Cc2ccc(OCCN)cc2)C(=O)N[C@@H](Cc2ccc3ccccc3c2)C(=O)N[C@@](C)(CC(C)C)C(=O)N1 [Compound 40, [4-Aminomethyl-phenylacetyl](1c)*AE(2c)WQ[Dab](2c)[Y(2-aminoethoxy)][2-Nal][2-Me-Leu]E(1c)S[3-(3-Pyridyl)-Ala]-[NHMe]] ([X1]AEWQ[Dab][AEF][2Nal][αMeL]ES[3Pal]-NHMe; lactam 3-6, N-10)
[2]
  remaining at 4 h, 10 µM: 80%
Human IL-23R
  % displacement (hIL-23R binding): 100%
  IC50: 19 pM
[3]
  remaining at 1 h, 10 µM: 89%
